Common to all, as to test: relative viability (nuclei count vs DMSO), 5 days (fraction); higher = more cells survive
Compound in the test “EHT 1864 + Navitoclax”: C1COCCN1CC2=CC(=O)C(=CO2)OCCCCCSC3=C4C=CC(=CC4=NC=C3)C(F)(F)F [EHT 1864] + CC1(C)CCC(c2ccc(Cl)cc2)=C(CN2CCN(c3ccc(C(=O)NS(=O)(=O)c4ccc(N[C@H](CCN5CCOCC5)CSc5ccccc5)c(S(=O)(=O)C(F)(F)F)c4)cc3)CC2)C1 [Navitoclax] (partner 0.5 µM)
The procedure, abridged: (§1)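 Lung cancer cell lines in 1536-well plates were dosed by pin tool the day after seeding, either with one drug alone or with a fixed anchor-drug dose plus five library-drug doses (not always all listed) in √10 steps. After 5 days, cells were fixed and their nuclei stained in one step (final 0.05% Triton X-100, 1% formaldehyde, 1 ug/ml Hoechst), then counted on 4× images. Relative viability is the nuclei count in treated wells divided by that in vehicle wells. Values are medians of duplicate plates.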

Compound in the test “EHT 1864 + Phenformin”: C1COCCN1CC2=CC(=O)C(=CO2)OCCCCCSC3=C4C=CC(=CC4=NC=C3)C(F)(F)F [EHT 1864] + N=C(N)NC(=N)NCCc1ccccc1 [Phenformin] (partner 250 µM)
An outline of the steps: as §1

Compound in the test “EHT 1864 + Pemetrexed”: C1COCCN1CC2=CC(=O)C(=CO2)OCCCCCSC3=C4C=CC(=CC4=NC=C3)C(F)(F)F [EHT 1864] + Nc1nc2[nH]cc(CCc3ccc(C(=O)N[C@@H](CCC(=O)O)C(=O)O)cc3)c2c(=O)[nH]1 [Pemetrexed] (partner 0.2 µM)
The procedure, abridged:
as §1

Compound in the test “EHT 1864 + Trametinib”: C1COCCN1CC2=CC(=O)C(=CO2)OCCCCCSC3=C4C=CC(=CC4=NC=C3)C(F)(F)F [EHT 1864] + CC(=O)Nc1cccc(-n2c(=O)n(C3CC3)c(=O)c3c(Nc4ccc(I)cc4F)n(C)c(=O)c(C)c32)c1 [Trametinib] (partner 0.02 µM)
An outline of the steps:
as §1

In the supplement of paper PMC10307832 one finds relative viability data, which are given here for 5 cell lines.

For NCI-H1703, the relative viability came out at 1.13 in the test with EHT 1864 + Navitoclax (first compound 0.04 µM); 0.968 in the test with EHT 1864 + Navitoclax (first compound 0.1265 µM); 0.956 with EHT 1864 + Navitoclax (first compound 0.4 µM); 0.849 in the test with EHT 1864 + Navitoclax (first compound 1.265 µM); 0.749 with EHT 1864 + Navitoclax (first compound 4 µM).

Regarding NCI-H2342, the relative viability with EHT 1864 + Phenformin (first compound 0.04 µM) is 0.546; in the test with EHT 1864 + Phenformin (first compound 0.1265 µM), 0.52; with EHT 1864 + Phenformin (first compound 0.4 µM), 0.621; with EHT 1864 + Phenformin (first compound 1.265 µM), 0.523; in the test with EHT 1864 + Phenformin (first compound 4 µM), 0.678; in the test with EHT 1864 + Pemetrexed (first compound 0.04 µM), 0.603. Moreover, the relative viability is 0.704 with EHT 1864 + Pemetrexed (first compound 0.1265 µM); 0.788 with EHT 1864 + Pemetrexed (first compound 0.4 µM); 0.709 with EHT 1864 + Pemetrexed (first compound 1.265 µM); 0.742 with EHT 1864 + Pemetrexed (first compound 4 µM); 0.71 with EHT 1864 + Trametinib (first compound 0.04 µM); 0.681 in the test with EHT 1864 + Trametinib (first compound 0.1265 µM). For the same cell line, the figures for the relative viability in the test with EHT 1864 + Trametinib (first compound 0.4 µM), in the test with EHT 1864 + Trametinib (first compound 1.265 µM) and in the test with EHT 1864 + Trametinib (first compound 4 µM) were 0.759, 0.874 and 0.935, respectively.

As to CAL-12T, the relative viability with EHT 1864 + Phenformin (first compound 0.04 µM) worked out at 0.582; with EHT 1864 + Phenformin (first compound 0.1265 µM), 0.574; with EHT 1864 + Phenformin (first compound 0.4 µM) it was 0.662; in the test with EHT 1864 + Phenformin (first compound 1.265 µM) it was 0.583; with EHT 1864 + Phenformin (first compound 4 µM), 0.596; with EHT 1864 + Navitoclax (first compound 0.04 µM), 1.03. Further, the relative viability with EHT 1864 + Navitoclax (first compound 0.1265 µM) came out at 1.07; with EHT 1864 + Navitoclax (first compound 0.4 µM) it was 1.04; in the test with EHT 1864 + Navitoclax (first compound 1.265 µM) it was 1.19; with EHT 1864 + Navitoclax (first compound 4 µM), 1.22; in the test with EHT 1864 + Pemetrexed (first compound 0.04 µM), 1.08; with EHT 1864 + Pemetrexed (first compound 0.1265 µM), 1.12. Further, the relative viability with EHT 1864 + Pemetrexed (first compound 0.4 µM) came out at 1.09; with EHT 1864 + Pemetrexed (first compound 1.265 µM), 1.18; with EHT 1864 + Pemetrexed (first compound 4 µM) it was 0.964; in the test with EHT 1864 + Trametinib (first compound 0.04 µM) it was 0.35; with EHT 1864 + Trametinib (first compound 0.1265 µM), 0.287; with EHT 1864 + Trametinib (first compound 0.4 µM), 0.333. Further, the relative viability in the test with EHT 1864 + Trametinib (first compound 1.265 µM) came out at 0.399; with EHT 1864 + Trametinib (first compound 4 µM), 0.39.

In the case of NCI-H727, the relative viability in the test with EHT 1864 + Phenformin (first compound 0.04 µM) amounted to 0.551; with EHT 1864 + Phenformin (first compound 0.1265 µM), 0.574; with EHT 1864 + Phenformin (first compound 0.4 µM) it was 0.481; with EHT 1864 + Phenformin (first compound 1.265 µM) it was 0.461; with EHT 1864 + Phenformin (first compound 4 µM), 0.597; with EHT 1864 + Navitoclax (first compound 0.04 µM) it was 0.554. For the same cell line, the relative viability was determined as 0.507 in the test with EHT 1864 + Navitoclax (first compound 0.1265 µM); 0.348 with EHT 1864 + Navitoclax (first compound 0.4 µM); 0.324 with EHT 1864 + Navitoclax (first compound 4 µM); 0.389 with EHT 1864 + Trametinib (first compound 0.04 µM); 0.386 in the test with EHT 1864 + Trametinib (first compound 0.1265 µM); 0.382 with EHT 1864 + Trametinib (first compound 0.4 µM). Further, the relative viability with EHT 1864 + Trametinib (first compound 1.265 µM) turned out to be 0.374; with EHT 1864 + Trametinib (first compound 4 µM) it was 0.421.

Take NCI-H2085: the relative viability turned out to be 0.731 in the test with EHT 1864 + Phenformin (first compound 0.04 µM); 0.832 in the test with EHT 1864 + Phenformin (first compound 0.4 µM); 0.808 with EHT 1864 + Phenformin (first compound 1.265 µM); 0.732 with EHT 1864 + Phenformin (first compound 4 µM); 1.03 with EHT 1864 + Navitoclax (first compound 0.04 µM); 1.11 with EHT 1864 + Navitoclax (first compound 0.1265 µM). The relative viability came out at 1.08 with EHT 1864 + Navitoclax (first compound 0.4 µM); 1.13 with EHT 1864 + Navitoclax (first compound 1.265 µM); 1.14 in the test with EHT 1864 + Navitoclax (first compound 4 µM); 0.908 in the test with EHT 1864 + Pemetrexed (first compound 0.04 µM); 0.646 in the test with EHT 1864 + Pemetrexed (first compound 0.1265 µM); 0.969 with EHT 1864 + Pemetrexed (first compound 0.4 µM). Further, the relative viability in the test with EHT 1864 + Pemetrexed (first compound 1.265 µM) was 0.967; with EHT 1864 + Pemetrexed (first compound 4 µM), 0.882; with EHT 1864 + Trametinib (first compound 0.04 µM), 0.417; in the test with EHT 1864 + Trametinib (first compound 0.1265 µM), 0.533; with EHT 1864 + Trametinib (first compound 0.4 µM), 0.514; with EHT 1864 + Trametinib (first compound 1.265 µM) it was 0.604. Also, the relative viability in the test with EHT 1864 + Trametinib (first compound 4 µM) stood at 0.543.
